Source: patent publication EP0832650A2 (ELI LILLY AND COMPANY, priority 1996, dated 1998)
Counter-ions that a name gives are not always drawn.

System: neuronal protein extravasation
Test: Neuronal protein extravasation in dura after electrical stimulation of the trigeminal ganglion
Assay type: in vivo, Harlan Sprague-Dawley rats or guinea pigs
Settings: 10 minutes before trigeminal ganglion stimulation, dose inhibiting extravasation by 50%, approximated from dose-response curve, species (rat or guinea pig) not given
Protocol: Harlan Sprague-Dawley rats (250-350 g) or guinea pigs from Charles River Laboratories (250-350 g) were anesthetized with sodium pentobarbital intraperitoneally (65 mg/kg or 45 mg/kg respectively) and placed in a stereotaxic frame (David Kopf Instruments) with the incisor bar set at -3.5 mm for rats or -4.0 mm for guinea pigs. Following a midline sagital scalp incision, two pairs of bilateral holes were drilled through the skull (6 mm posteriorly, 2.0 and 4.0 mm laterally in rats; 4 mm posteriorly and 3.2 and 5.2 mm laterally in guinea pigs, all coordinates referenced to bregma) . Pairs of stainless steel stimulating electrodes, insulated except at the tips, (Rhodes Medical Systems, Inc.) were lowered through the holes in both hemispheres to a depth of 9 mm (rats) or 10.5 mm (guinea pigs) from dura.
The femoral vein was exposed and a dose of the test compound was injected intravenously (1 mL/kg). Approximately 7 minutes later, a 50 mg/kg dose of Evans Blue, a fluorescent dye, was also injected intravenously. The Evans Blue complexed with proteins in the blood and functioned as a marker for protein extravasation. Exactly 10 minutes post-injection of the test compound, the left trigeminal ganglion was stimulated for 3 minutes at a current intensity of 1.0 mA (5 Hz, 4 msec duration) with a Model 273 potentiostat/ galvanostat (EG&G Princeton Applied Research).
Fifteen minutes following stimulation, the animals were killed by exsanguination with 40 mL of saline. The top of the skull was removed to facilitate the collection of the dural membranes. The membrane samples were removed from both hemispheres, rinsed with water, and spread flat on microscopic slides. Once dried, the tissues were coverslipped with a 70% glycerol/water solution.
A fluorescence microscope (Zeiss) equipped with a grating monochromator and a spectrophotometer was used to quantify the amount of Evans Blue dye in each sample. An excitation wavelength of approximately 535 nm was utilized and the emission intensity at 600 nm was determined. The microscope was equipped with a motorized stage and also interfaced with a personal computer. This facilitated the computer-controlled movement of the stage with fluorescence measurements at 25 points (500 µm steps) on each dural sample. The mean and standard deviation of the measurements was determined by the computer.
The extravasation induced by the electrical stimulation of the trigeminal ganglion was an ipsilateral effect (i.e. occurs only on the side of the dura in which the trigeminal ganglion was stimulated). This allows the other (unstimulated) half of the dura to be used as a control. The ratio of the amount of extravasation in the dura from the stimulated side compared to the unstimulated side dura was calculated. Saline controls yielded a ratio of approximately 2.0 in rats and 1.8 in guinea pigs. […]

SMILES	Inhibition of Protein Extravasation i.v. ID50 [mmol/kg]
Cn1cc(CCN2CCC(c3c[nH]c4ccc(F)cc34)CC2)cn1 [Compound II, 5-fluoro-3-<1-<2-<1-methyl-1H-pyrazol-4-yl>ethyl>-4-piperidinyl>-1H-indole hydrochloride]	8.6e-10
O=C(O)C(=O)O.Oc1ccc2[nH]cc(C3CCNCC3)c2c1 [Compound III, 5-hydroxy-3-(4-piperidinyl)-1H-indole oxalate]	8.9e-09
CN(C)C1CCc2[nH]c3ccc(O)cc3c2C1 (centres unmarked) [Compound V, 6-hydroxy-3-dimethylamino-1,2,3,4-tetrahydrocarbazole]	8.7e-09
CCN(CC)C1CCc2cccc(Cl)c2C1.Cl (centres unmarked) [Compound IV, 8-chloro-2-diethylamino-1,2,3,4-tetrahydronaphthalene hydrochloride]	1.2e-07
CNS(=O)(=O)Cc1ccc2[nH]cc(CCN(C)C)c2c1.O=C(O)CCC(=O)O [Compound I, 3-[2-(dimethylamino)ethyl]-N-methyl-1H-indole-5-methanesulfonamide butane-1,4-dioate (1:1)]	2.6e-08
